Data taken from patent US20100144786A1, “QUINOLINE DERIVATIVES AS CRTH2 RECEPTOR LIGANDS” (priority 2007, published 2010).
pIC50: −log10 of the molar value.

Biological target: T1, CRTH2 receptor (Homo sapiens, UniProt Q9Y5Y4)
T1 construct: expressed in transfected cells; host or cells: Human embryonic kidney (HEK) cells, membranes
T1 sequence (Q9Y5Y4 1-395): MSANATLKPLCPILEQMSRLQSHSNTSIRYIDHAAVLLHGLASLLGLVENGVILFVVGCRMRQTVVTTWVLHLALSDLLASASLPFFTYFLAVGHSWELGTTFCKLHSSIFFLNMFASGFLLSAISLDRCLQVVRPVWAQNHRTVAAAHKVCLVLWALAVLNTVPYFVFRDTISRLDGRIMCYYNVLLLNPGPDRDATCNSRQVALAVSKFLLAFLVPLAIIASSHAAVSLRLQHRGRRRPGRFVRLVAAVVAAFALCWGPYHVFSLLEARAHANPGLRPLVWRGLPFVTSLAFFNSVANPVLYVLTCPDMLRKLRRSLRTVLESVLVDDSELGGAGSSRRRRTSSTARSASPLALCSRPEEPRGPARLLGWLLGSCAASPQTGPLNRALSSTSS
Assay: CRTH2 radioligand binding assay ([3H]-PGD2 displacement, SPA)
Conditions: HEK cell membranes expressing the CRTH2 receptor, 1 nM [3H]-PGD2
Method: Compounds of the invention were tested using the following biological test methods to determine their ability to displace PGD2 from the CRTH2 receptor and for their ability to antagonise the functional effects of PGD2 at the CRTH2 receptor.
The receptor binding assay is performed in a final volume of 200 μl binding buffer [10 mM BES (pH 7.4), 1 mM EDTA, 10 mM manganese chloride, 0.01% BSA] and 1 nM [^3H]-PGD2 (Amersham Biosciences UK Ltd). Ligands are added in assay buffer containing a constant amount of DMSO (1% by volume). Total binding is determined using 1% by volume of DMSO in assay buffer and non-specific binding is determined using 10 μM of unlabeled PGD2 (Sigma). Human embryonic kidney (HEK) cell membranes (3.5 μg) expressing the CRTH2 receptor are incubated with 1.5 mg wheatgerm agglutinin SPA beads and 1 nM [^3H]-PGD2 (Amersham Biosciences UK Ltd) and the mixture incubated for 3 hours at room temperature. Bound [^3H]-PGD2 is detected using a Microbeta TRILUX liquid scintillation counter (Perkin Elmer). Compound IC50 value is determined using a 6-point dose response curve in duplicate with a semi-log compound dilution series. IC50 calculations are performed using Excel and XLfit (Microsoft), and this value is used to determine a Ki value for the test compound using the Cheng-Prusoff equation.

pIC50 | Compound
8.21 | CCc1nc2c(F)ccc(OCC(=O)O)c2c(OC(F)F)c1Cc1ccc(C#N)cc1 [Example 1, [3-(4-cyanobenzyl)-4-difluoromethoxy-2-ethyl-8-fluoroquinolin-5-yloxy]acetic acid]
8.12 | CCc1nc2c(F)ccc(OCC(=O)O)c2c(OC(F)F)c1Cc1ccc(Br)cc1 [Example 2, [3-(4-bromobenzyl)-4-difluoromethoxy-2-ethyl-8-fluoroquinolin-5-yloxy]acetic acid]
